The results in this text go back to patent publication US6333338A, “Bispiperidines as antithrombotic agents” (Laboratoire L. Lafon, priority 1998, dated 2001).

Assay [1] deals with guinea pig platelets. Kind of assay: Ex vivo/vitro inhibition of platelet aggregation after administration via the gastric route in guinea pigs. Further details: species or system guinea pig (Dunkin-Hartley). As to conditions: Cavia porcellus, Platelet, fasted guinea pigs. The procedure, abridged: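 Freshly separated platelets from Dunkin-Hartley guinea pigs given test compounds by the gastric route (random allocation) were tested ex vivo under the in vitro assay conditions. Aggregation inhibition at each concentration gave an IC50 plus kinetics and duration of effect.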

Assay [2] deals with guinea pig platelets. Kind of assay: In vitro inhibition of collagen-induced platelet aggregation, guinea pig platelets (PRP). It counts as cell-based, guinea pig (male Dunkin-Hartley). The conditions noted are these: Cavia porcellus, Platelet, 0.05 h, collagen 1 μg/ml, 3 minutes of contact at 37° C. The procedure, abridged:
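Citrated PRP from male Dunkin-Hartley guinea pigs, adjusted to 200,000–400,000 platelets/mm^3, with PPP as reference. Aggregation induced by collagen (1 μg/ml) and followed by optical aggregometry; inhibition measured after 3 min compound contact at 37° C with stirring.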

Assay [3] relates to human platelets. The experiment in a line: In vitro inhibition of collagen-induced platelet aggregation, human platelets (PRP). It counts as cell-based. As to conditions: 0.05 h, collagen 5 μg/ml, 3 minutes of contact at 37° C., read-out: IC50 (M) in vitro, Man. On the procedure: A study of the inhibitory activity of the compounds of formula I on platelet aggregation was carried out in vitro, i.e. by direct contact of solutions of variable concentrations of the compounds with platelets freshly separated from a sample of total blood, taken under standardized conditions, from laboratory animals (guinea pigs) and from healthy human subjects who have not received any substances or drugs that might interfere with blood clotting. The anti-platelet-aggregating activity was also studied ex vivo/vitro, i.e. after administration of the substances claimed to guinea pigs to measure the intensity and duration of the anti-aggregating action induced by the fraction of the test product absorbed and circulating in the blood.
Venous blood is taken from a group of ten healthy human subjects of the same age, by puncture into a vein of the fold of the elbow and is collected in a glass tube containing aqueous 0.129 M sodium citrate solution (1 volume of citrate solution per 9 volumes of blood). Each tube is then centrifuged a first time at 20° C. and 100 g for 15 minutes in order to obtain the platelet-rich plasma (PRP); after removing this PRP, the tube is again centrifuged at 2000 g for 15 minutes in order this time to remove the platelet-poor plasma (PPP).
For each identified sample of PRP, the platelets are counted using a Coulter ZM counter. Each sample is then used to study the variation in inhibition of the platelet aggregation triggered by the addition of a Chromo-par Reagent collagen glucose solution from Coultronics (used at a concentration of 5 μg/ml) as a function of the addition of increasing concentrations of each compound in a range covering the interval 10^-8 M→10^-5 M, (example of concentrations: 10^-8 M, […], 6×10^-6 M, 4×10^-6 M, 2×10^-6 M, 10^-6 M, […], 10^-5 M). Beforehand, for each compound, an aqueous 10^-3 M solution is prepared. A control test intended to check the possible effect of the solvents (reference value) on the platelet aggregation is introduced into each measurement series, and is measured after 3 minutes of contact at 37° C. with agitation.
From the percentages of inhibition of the platelet aggregation measured for each concentration of each compound, the 50% inhibitory concentration (IC50) is calculated.

Setting [4] is: 1 h before blood sampling, read-out: % of g.r. inhibition guinea pig ex vivo, d = 10 mg/kg, 1 h.
Setting [5] is: 2 h before blood sampling, read-out: % of g.r. inhibition guinea pig ex vivo, d = 10 mg/kg, 2 h.
[6] abbreviates: 1 h before blood sampling, read-out: % of g.r. inhibition guinea pig ex vivo, d = 150 mg/kg, 1 h.
[7] abbreviates: 2 h before blood sampling, read-out: % of g.r. inhibition guinea pig ex vivo, d = 150 mg/kg, 2 h.

Counter-ions that a name gives are not always drawn. Like-named read-outs stand apart in the source and are kept apart here.

By IC50 is commonly meant the midpoint of a concentration-inhibition curve. `O=C(CNC(=O)C(CCC1CCNCC1)CCC1CCNCC1)NCC(NS(=O)(=O)c1ccc(-c2ccccc2)s1)C(=O)O` (stereo not drawn) [Example 71, 2-{[(5-Phenyl-2-thienyl))sulphonyl]amino}-3-{[2-({4-(4-piperidyl)-2-[2-(4-piperidyl)ethyl]butanoyl}amino)acetyl]amino}propanoic Acid Dihydrochloride]: the inhibition at 10 mg/kg was -72% in assay [1] (setting [4]) and -70% in assay [1] (setting [5]). In addition, the IC50 in assay [2] stood at 63 nM; in assay [3], 1.9e-07 M.
As to `COc1ccc2cc(S(=O)(=O)N[C@@H](CNC(=O)CNC(=O)C(CCC3CCNCC3)CCC3CCNCC3)C(=O)O)ccc2c1` [Example 36, (2S)-2-{[(6-Methoxy-2-naphthyl)sulphonyl]amino}-3-{[2-({4-(4-piperidyl)-2-[2-(4-piperidyl)ethyl]butanoyl}amino)acetyl]amino}propanoic Acid Dihydrochloride], the inhibition at 10 mg/kg was -63% in assay [1] (setting [4]) and -69% in assay [1] (setting [5]). Moreover, the 50% inhibitory concentration (IC50) amounted to 41 nM in assay [2] and 7.2e-08 M in assay [3].
Regarding `Cc1cc(C)c(S(=O)(=O)NC(CNC(=O)CNC(=O)C(CCC2CCNCC2)CCC2CCNCC2)C(=O)O)c(C)c1` (stereo not drawn) [Example 37, 2-[(Mesitylsulphonyl)amino]-3-{[2-({4-(4-piperidyl)-2-[2-(4-piperidyl)ethyl]butanoyl}amino)acetyl]amino}propanoic Acid Dihydrochloride], the inhibition at 10 mg/kg is -9% in assay [1] (setting [4]) and -16% in assay [1] (setting [5]). In addition, the IC50 in assay [2] stood at 140 nM; in assay [3] it was 1.3e-07 M.
On to `O=C(O)C[C@H](NC(=O)CNC(=O)C(CCC1CCNCC1)CCC1CCNCC1)C(=O)N1CCC(Cc2ccccc2)CC1` [Example 29, (3S)-4-oxo-4-(4-Benzylpiperidino)-3-{[2-({4-(4-piperidyl)-2-[2-(4-piperidyl)ethyl]butanoyl}amino)acetyl]amino}-butanoic Acid Dihydrochloride], for which the inhibition at 150 mg/kg in assay [1] (setting [6]) was -35%; in assay [1] (setting [7]), -23%. In addition, the values for the IC50 in assay [2] and in assay [3] were 13000 nM and 1e-05 M, respectively.
`O=C(CNC(=O)C(CCC1CCNCC1)CCC1CCNCC1)NC[C@H](NS(=O)(=O)c1cc2ccccc2s1)C(=O)O` [Example 59, 2-[(1-Benzothiophen-2-ylsulphonyl)amino]-3-{[2-({4-(4-piperidyl)-2-[2-(4-piperidyl)ethyl]butanoyl}amino)acetyl]amino}propanoic Acid Dihydrochloride]: the inhibition at 10 mg/kg in assay [1] (setting [4]) is -66%; in assay [1] (setting [5]), -34%. Moreover, the figures for the IC50 in assay [2] and in assay [3] were 66 nM and 1.5e-07 M, respectively.
On to `O=C(O)C[C@H](NC(=O)CNC(=O)C(CCC1CCNCC1)CCC1CCNCC1)C(=O)NC12CC3CC(CC(C3)C1)C2` [Example 16, (3S)-4-(1-Adamantylamino)-4-oxo-3-{[2-({4-(4-piperidyl)-2-[2-(4-piperidyl)ethyl]butanoyl}amino)acetyl]amino}butanoic Acid Dihydrochloride], for which the inhibition at 10 mg/kg in assay [1] (setting [4]) is -5%. The inhibition at 150 mg/kg in assay [1] (setting [6]) was -54%; in assay [1] (setting [7]) it was -47%. Besides, the IC50 was determined as 3500 nM in assay [2] and 8.5e-07 M in assay [3].
`COc1cccc(C(CC(=O)O)NC(=O)CNC(=O)C(CCC2CCNCC2)CCC2CCNCC2)c1` (stereo not drawn) [Example 10, 3-(3-Methoxyphenyl)-3-{[2-({4-(4-piperidyl)-2-[2-(4-piperidyl)ethyl]butanoyl}amino)acetyl]amino}propanoic Acid Dihydrochloride]: the results for the inhibition at 150 mg/kg in assay [1] (setting [6]) and in assay [1] (setting [7]) were -14% and -18%, respectively. Further, the IC50 worked out at 13000 nM in assay [2] and 9.2e-07 M in assay [3].
As for `CC(C)c1ccc(C(CC(=O)O)NC(=O)CNC(=O)C(CCC2CCNCC2)CCC2CCNCC2)cc1` (stereo not drawn) [Example 6, 3-(4-Isopropylphenyl)-3-{[2-({4-(4-piperidyl)-2-[2-(4-piperidyl)ethyl]butanoyl}amino)acetyl]amino}propanoic Acid Dihydrochloride], the inhibition at 150 mg/kg in assay [1] (setting [6]) is -9%; in assay [1] (setting [7]), -4%. The IC50 is 14000 nM in assay [2] and 2.7e-06 M in assay [3].
On to `O=C(O)CC(NC(=O)CNC(=O)C(CCC1CCNCC1)CCC1CCNCC1)c1ccc2c(c1)OCO2` (stereo not drawn) [Example 5, 3-(1,3-Benzodioxol-5-yl)-3-{[2-({4-(4-piperidyl)-2-[2-(4-piperidyl)ethyl]butanoyl}amino)acetyl]amino}-propanoic Acid Dihydrochloride], for which the inhibition at 10 mg/kg in assay [1] (setting [4]) was -15%. The inhibition at 150 mg/kg in assay [1] (setting [6]) was -63%; in assay [1] (setting [7]), -66%. For the same molecule, the IC50 in assay [2] turned out to be 2000 nM; in assay [3], 2.8e-07 M.
On to `O=C(O)CC(NC(=O)CNC(=O)C(CCC1CCNCC1)CCC1CCNCC1)c1cccnc1` (stereo not drawn) [Example 12, 3-(3-Pyridyl)-3-{[2-({4-(4-piperidyl)-2-[2-(4-piperidyl)ethyl]butanoyl}amino)acetyl]amino}propanoic Acid Trihydrochloride], for which the inhibition at 150 mg/kg was -74% in assay [1] (setting [6]) and -68% in assay [1] (setting [7]). Also, the concentration for half-maximal inhibition (IC50) in assay [2] is 980 nM; in assay [3], 1.5e-06 M.
With `O=C(CNC(=O)C(CCC1CCNCC1)CCC1CCNCC1)NCC(NS(=O)(=O)c1ccc(Cl)c2ccccc12)C(=O)O` (stereo not drawn) [Example 63, 2-{[(4-Chloro-1-naphthyl)sulphonyl]amino}-3-{[2-({4-(4-piperidyl)-2-[2-(4-piperidyl)ethyl]butanoyl}amino)acetyl]amino}propanoic Acid Dihydrochloride], the inhibition at 10 mg/kg in assay [1] (setting [4]) was -69%; in assay [1] (setting [5]), -50%. The concentration for half-maximal inhibition (IC50) in assay [2] was found to be 53 nM; in assay [3], 1e-06 M.
For the molecule `O=C(CCNC(=O)C(CCC1CCNCC1)CCC1CCNCC1)NCC(NS(=O)(=O)c1ccc2ccccc2c1)C(=O)O` (stereo not drawn) [Example 78, 2-[(2-Naphthylsulphonyl)amino]-3-{[3-({4-(4-piperidyl)-2-[2-(4-piperidyl)ethyl]butanoyl}amino)propanoyl]amino}propanoic Acid Dihydrochloride], the values for the inhibition at 10 mg/kg in assay [1] (setting [4]) and in assay [1] (setting [5]) were -65% and -73%, respectively. The IC50 came out at 46 nM in assay [2] and 1e-07 M in assay [3].
The matching figures for `CN(C)c1cccc2c(S(=O)(=O)NC(CNC(=O)CNC(=O)C(CCC3CCNCC3)CCC3CCNCC3)C(=O)O)cccc12` (stereo not drawn) [Example 49, 2-({[5-(Dimethylamino)-1-naphthyl)sulphonyl}amino)-3-{[2-({4-(4-piperidyl)-2-[2-(4-piperidyl)ethyl]butanoyl}amino)acetyl]amino}propanoic Acid Trihydrochloride]: -69%, -68%, 49 nM and 5.6e-08 M.
